Laboratory results as given in US4212862A, “O,O-Diaryl-1-acyloxy-2,2,2-trichloroethylphosphonates and fungicides based thereon” (priority 1978, dated 1980).
“And” between values parts separate entries of the source, which are not always exact repeats. Equal values may be shown once. Read-outs that look alike come from different tables or passages of the source.

Tests used:
[1] = test system: potato phytophthora (Phytophthora infestans); format: in vivo; conditions: 1% aqueous emulsion; 18 °C, 14 days
[2] = test system: spores of Piricularia oryzae Cav.; format: cell-based
[3] = test system: stalk rust (Puccinia graminis f. tritici); format: in vivo
[4] = test system: wheat plants
[5] = test system: apple scab (Venturia inaequalis); conditions: in vivo
[6] = test system: white mice; assay: Acute peroral toxicity for warm-blooded animals (LD50, LD90); format: in vivo; conditions: Table 14; female mice, peroral
Description: (§1) Toxicity (LD50) was evaluated on males and females of white mice with peroral administration of the compounds. A portion of the test compound was mixed with the emulsifier Twin-20 and diluted with distilled water to the required working concentration. Administration of the preparation was effected by means of a metal probe and syringe directly into the stomach of test animals 2-3 hours after feeding. The tests were performed using several doses, 6 animals per each dose. Subsequent observation was effected for two weeks.

[7] = as above; format: in vivo, white mice; conditions: mouse, in vivo, po
Description: as §1

[8] = test system: rust diseases of cereal crops; assay: Activity against rust diseases of cereal crops (general statements); format: in vivo
[9] = test system: stalk rust of wheat (Puccinia graminis); format: in vivo; conditions: in vivo
[10] = test system: plants; conditions: prior art; cited from earlier work
[11] = test system: rust diseases of cereal crops; conditions: prior art; cited from earlier work
[12] = prior art; cited from earlier work
[13] = test system: yellow rust (P. striiformis); assay: Efficiency of Aphos for USVS against yellow rust of wheat under field conditions (Table 8); format: in vivo; conditions: Taskent region, spring wheat Kzyl Shark, 3.0 kg/ha, 7.5 l/ha (Zineb 600), 3 sprayings
[14] = test system: stalk rust (Puccinia graminis f. tritici); format: in vivo; conditions: Table 8, 3.0 kg/ha, 3 sprayings
[15] = test system: yellow rust of wheat; conditions: in vivo
[16] = seeds after storage of grains for one year
[17] = Krasnodar region, winter wheat Odesskaja-51, 7.5 l/ha (Zineb 3.2 kg/ha, 600 l/ha)
[18] = Moscow region, spring wheat Krasnozernaja, 7.5 l/ha (Zineb 600)

With `CN(C)C(=S)SSC(=S)N(C)C` [TMTD, tetramethylthiuramdisulphide] the “sporulation on treated tubers” value [1] was “individual conidia were observed”.
With `CC(=O)OC(C(Cl)(Cl)Cl)P(=O)(Oc1ccccc1)Oc1ccccc1` (centres unmarked) [I, O,O-diphenyl-1-acetoxy-2,2,2-trichloroethylphosphonate] the “efficiency of suppressing spores relative to kitacin” value [2] was “about 40 times”, the “superiority over kitacin in respect of activity” value [2] was “about 50 times” and the “Concentration causing 50% death of spores” value ([2]; 24 hours) was 0.69 mg/L. The “Percentage of plants injured with rust, 1-st evaluation” value ([3]; in vivo) was 0.5%, the “Percentage of plants injured with rust, 2-nd evaluation” value ([3]; in vivo) was 7.0% and the “Weight of 1,000 grains” value ([3]; in vivo) was 18.7 g. The Yield ([3]; in vivo) was 17.40 c/ha, the “effect on yield of wheat grain” value ([4]; even at 8-times the increase of the dose) was “does not lower the yield of wheat grain” and the germination power [4, 16] was 99.5%. The sprouting energy [4, 16] was 98.5%, the “protection of the apple tree from scab” value [5] was “complete protection” and the “LD90 with trusty limits” value [6] was 8,200 mg/kg. It also gave an LD50 at 336 h ([7]; Table 2, peroral, read-out: LD50 for white mice) of 3500 mg/kg, an LD50 at 336 h ([7]; Table 14, female mice, peroral, read-out: LD50 with trusty limits) of 3500 mg/kg and an LD50 at 336 h ([7]; white mice, peroral administration, read-out: acute toxicity) of about 3500 mg/kg. The “period of fungicidal effect as compared to zineb” value ([8]; compared to zineb) was “longer period of a fungicidal effect as compared to zineb”, the “protection of cereal crops from rust” value ([8]; even at a high level of infection) was “substantially completely protect cereal crops from rust” and the “increase of the grain yield” value ([8]; high-volume spraying and USVS at 5 to 8 l/ha) was “up to 24 c/ha”. The “efficiency compared with prior art anti-rust compositions” value ([8]; including zineb and hydroxycarboxine) was “superior over the prior art anti-rust fungicidal compositions including zineb and hydroxycarboxine” and the “Percentage of injury lowered” value [9] was 98-100% and 70-97%.
For `Nc1ccc(S(=O)(=O)O)cc1` [anilate], the phytotoxicity [10] is given as “phytotoxic” and the “activity against rust diseases” value [11] is given as “low-efficiency”.
In the case of zinc ethylenebisdithiocarbamate [Zineb], the stability upon storage [12] is given as “not stable upon storage”, the Grain yield [13] is given as 20.8 c/ha and the “Percentage of injured plants” value [13] is given as 14.4%. The “Weight of 1,000 grains” value [13] was 31.6 g, the “Weight of 1,000 grains” value ([3]; 3 kg/ha a.i., three sprayings) was 14.0 g and the Yield ([3]; 3 kg/ha a.i., three sprayings) was 8.55 c/ha. The “Percentage of plants injured with rust, 1-st evaluation” value ([3]; 3 kg/ha a.i., 9 days after the first spraying, Moscow region, spring wheat Krasnozernaja) was 0.5%, the “Percentage of plants injured with rust, 2-nd evaluation” value ([3]; 3 kg/ha a.i., two weeks after the third spraying, Moscow region, spring wheat Krasnozernaja) was 12.0% and the “activity against rust diseases” value [11] was “high activity”. The Grain yield [14, 17] was 34.5 c/ha, the “Percentage of injured plants” value [14, 17] was 16.0% and the “Weight of 1,000 grains” value [14, 17] was 35.6 g. For the same compound, the Grain yield [14, 18] was 8.0 c/ha, the “Percentage of injured plants” value [14, 18] was 23.3% and the “Weight of 1,000 grains” value [14, 18] was 12.6 g. For the same compound, the “Percentage of injured plants, 17.05” value [15] was 4% and 6% and 5%, the “Weight of 1,000 grains” value [15] was 35.4 g and 31.0 g and 34.8 g and the Yield [15] was 411 and 351 and 412. The “efficiency with longer intervals between sprayings” value [15] was “substantially reduced to zero”, the “reduced the degree of injury as compared to the control” value [5] was 97% and the “efficiency under different agroclimatic conditions including frequent heavy rains” value ([8]; frequent heavy rains) was “low-effective”.
